Experiments:
[1] = Static thermostability (GARDNER method), rigid PVC sheets, 185° C., 0.3 part stabilizer
Protocol: (§1) This study was carried out according to the GARDNER method, described in British Pat. No. 1,489,685.
(§2) The reference substance was 2-phenyl-indole, a well-known and widely used stabilizer.
(§3) The stabilizer (dihydropyridine or 2-phenyl-indole) and the other usual ingredients were mixed with powdered vinyl resins and the mixtures were calendered at a temperature of 160° C. to give rigid sheets.
(§4) The sheets were then heated in a thermostated oven (185° C. or 210° C.) for different intervals of time until incipient carbonization.
(§5) The coloration of the samples was compared to a standard scale of coloration, known as the GARDNER scale and was expressed in terms of the reference figures of the GARDNER scale.
(§6) This study was carried out with the following resin:
(§7) Polyvinyl chloride resin
(§8) SL 2016 is a solution of zinc-2-ethyl-hexanoate in a mixture of hydrocarbons boiling between 158° C. and 184° C.
A second trial was performed at a temperature of 185° C., with a resin containing 0.3 part of stabilizer, the samples being removed from the oven every 6 minutes over a period of 24 minutes, then every 3 minutes until the 42nd minute (or until carbonization).

[2] = Static thermostability (GARDNER method), rigid PVC sheets, 210° C., 0.3 part stabilizer; details: for thermostabilizing power compared to 2-phenyl-indole, in words: 210° C.
Protocol: as §1, §2, §3, §4, §5, §6, §7, §8
The first trial was carried out at 210° C. with a resin containing 0.3 part by weight of stabilizer, the sheets being removed from the oven every three minutes over a period of 21 minutes.

[3] = Static thermostability (GARDNER method), rigid PVC sheets, 185° C., equimolecular quantities; details: 1.55×10^-3 mol
Protocol: as §1, §2, §3, §4, §5, §6, §7, §8
Finally, a trail was performed at 185° C., with resins containing equimolecular quantities of the dihydropyridines or of 2-phenyl-indole, namely 1.55×10^-3 mol. In this case too, the samples were removed from the oven every 6 minutes over a period of 24 minutes and then every 3 minutes until the 42nd minute (or until carbonization).

| SMILES | coloration, GARDNER scale ([2]; 0 min) | coloration, GARDNER scale ([2]; 3 min) | coloration, GARDNER scale ([2]; 6 min) | coloration, GARDNER scale ([2]; 9 min) | coloration, GARDNER scale ([2]; 12 min) | coloration, GARDNER scale ([2]; 15 min) | coloration, GARDNER scale ([2]; 18 min) | coloration, GARDNER scale ([2]; 21 min) | other results |
| --- | --- | --- | --- | --- | --- | --- | --- | --- | --- |
| CC1=C(C(=O)OCCCl)CC(C(=O)OCCCl)=C(C)N1 [Compound 3, 2,6-Dimethyl-3,5-di-(2'-carbochloro-ethoxy)-1,4-dihydroyridine] | 1 | 1 | 3 | 4 | 5 | 10.5 | Burnt |  | coloration, GARDNER scale ([1]; 0 min): 1; coloration, GARDNER scale ([1]; 6 min): 1; coloration, GARDNER scale ([1]; 12 min): 5; coloration, GARDNER scale ([1]; 18 min): 8; coloration, GARDNER scale ([1]; 24 min): 10; coloration, GARDNER scale ([1]; 27 min): 10.5; coloration, GARDNER scale ([1]; 30 min): 13; coloration, GARDNER scale ([1]; 33 min): 14; coloration, GARDNER scale ([1]; 36 min): 18; coloration, GARDNER scale ([1]; 39 min): 18; coloration, GARDNER scale ([1]; 42 min): Burnt; thermostabilizing power compared to 2-phenyl-indole, in words [2]: greatly superior to 2-phenyl-indole |
| CCOCCOC(=O)C1=C(C)NC(C)=C(C(=O)OCCOCC)C1 [Compound 26] | 1 | 1 | 1 | 1 | 1.5 | 3 | 11 | Burnt |  |
| CC1=C(C(=O)OCC=Cc2ccccc2)CC(C(=O)OCC=Cc2ccccc2)=C(C)N1 [Compound 22, 2,6-Dimethyl-3,5-dicarbocinnamyloxy-1,4-dihydropyridine] | 1 | 1 | 2 | 4 | 11 | Burnt |  |  |  |
| CCCCCCCCCCCCCC1=C(C(=O)OC)CC(C(=O)OC)=C(CCCCCCCCCCCCC)N1 [Compound 20, 2,6-Ditridecyl-3,5-dicarbomethoxy-1,4-dihydropyridine] | 1 | 1 | 1.5 | 2 | 2 | 2.5 | 4 | 7 |  |
| CC1=C(C(=O)OCc2ccccc2C)CC(C(=O)OCc2ccccc2C)=C(C)N1 [Compound 6, 2,6-Dimethyl-3,5-di-(2'-carbomethyl-benzyloxy)-1,4-dihydropyridine] | 1 | 1 | 1.5 | 3 | 4 | 7 | Burnt |  | coloration, GARDNER scale ([1]; 0 min): 1; coloration, GARDNER scale ([1]; 6 min): 1; coloration, GARDNER scale ([1]; 12 min): 2; coloration, GARDNER scale ([1]; 18 min): 9; coloration, GARDNER scale ([1]; 24 min): 11; coloration, GARDNER scale ([1]; 27 min): 11; coloration, GARDNER scale ([1]; 30 min): 13; coloration, GARDNER scale ([1]; 33 min): 14; coloration, GARDNER scale ([1]; 36 min): Burnt; coloration, GARDNER scale ([3]; 0 min): 1; coloration, GARDNER scale ([3]; 6 min): 1; coloration, GARDNER scale ([3]; 12 min): 2; coloration, GARDNER scale ([3]; 18 min): 4; coloration, GARDNER scale ([3]; 24 min): 10; coloration, GARDNER scale ([3]; 27 min): 13; coloration, GARDNER scale ([3]; 30 min): B. |
| CCOC(=O)C1=C(Cc2ccccc2)NC(Cc2ccccc2)=C(C(=O)OCC)C1 [Compound 16, 2,6-Dibenzyl-3,5-dicarbethoxy-1,4-dihydropyridine] | 1 | 1 | 3 | 4 | 11 | 18 | Burnt |  | thermostabilizing power compared to 2-phenyl-indole, in words [2]: greatly superior to 2-phenyl-indole |
| CC1=C(C(=O)OCCOCCCl)CC(C(=O)OCCOCCCl)=C(C)N1 [Compound 19, 2,6-Dimethyl-3,5-di-(2"-carbochloro-2'ethoxy-ethoxy)-1,4-dihydropyridine] | 1 | 1 | 1 | 2 | 3 | 10 | 13 | Burnt |  |
| CCCCCCC1C(C(=O)OC)=C(C)NC(C)=C1C(=O)OC [Compound 8, 2,6-Dimethyl-3,5-dicarbomethoxy-4-hexyl-1,4-dihydropyridine] | 1 | 2 | 3 | 6 | 8 | 10.5 | 11 | Burnt |  |
| CC1=C(C(=O)OCc2ccc(Cl)cc2)CC(C(=O)OCc2ccc(Cl)cc2)=C(C)N1 [Compound 7, 2,6-Dimethyl-3,5-di-(4'carbochloro-benzyloxy)-1,4-dihydropyridine] | 1 | 1 | 2 | 4 | 10.5 | 14 | Burnt |  |  |
| COC(=O)C1=C(c2ccccc2)NC(c2ccccc2)=C(C(=O)OC)C1 [Compound 18, 2,6-Diphenyl-3,5-dicarbomethoxy-1,4-dihydropyridine] | 1 | 1 | 2 | 2 | 2 | 3 | 6 | Burnt |  |
| COCCOC(=O)C1=C(C)NC(C)=C(C(=O)OCCOC)C1 [Compound 25] | 1 | 1 | 1 | 1 | 1 | 4 | 11 | 17 |  |
| C=CCCC1=C(C(=O)OC)CC(C(=O)OC)=C(CCC=C)N1 [Compound 17, 2,6-Di-(3-butenyl)-3,5-dicarbomethoxy-1,4-dihydropyridine] | 1 | 1 | 2 | 8 | 9 | Burnt |  |  | thermostabilizing power compared to 2-phenyl-indole, in words [2]: greatly superior to 2-phenyl-indole |
| COC(=O)C1=C(C)NC(C)=C(C(=O)OC)C1c1ccccc1 [Compound 23, 2,6-Dimethyl-3,5-dicarbomethoxy-4-phenyl-1,4-dihydropyridine] | 1 | 2 | 3 | 13 | 14 | 15 | Burnt |  |  |
